Data reported in article PMC6121469 (International Journal of Molecular Sciences, 2018).

How the values were obtained:
TASK-3 WT channel [1] = biological target: T1, TASK-3 WT channel (Cavia porcellus, UniProt Q9JL58); details: +80 mV, HEK-293 cells
TASK-3/2loop2/Y99A = TASK-3/2loop2/Y99A (Cavia porcellus, UniProt Q9JL58); details: HEK-293 cells
[2] = biological target: TASK-3/2loop2 (cap-less TASK-3 channel) (Cavia porcellus, UniProt Q9JL58); details: symmetrical K+ conditions, HEK-293 cells
TASK-3 WT channel [3] = biological target: T1, TASK-3 WT channel; assay: cell-based
TASK-3/2loop2/Y205A = TASK-3/2loop2/Y205A (Cavia porcellus, UniProt Q9JL58, Y205A, form not given); details: HEK-293 cells
Chain of TASK-3/2loop2/Y205A (Q9JL58 with tags, fused parts or gaps Y205A, form open): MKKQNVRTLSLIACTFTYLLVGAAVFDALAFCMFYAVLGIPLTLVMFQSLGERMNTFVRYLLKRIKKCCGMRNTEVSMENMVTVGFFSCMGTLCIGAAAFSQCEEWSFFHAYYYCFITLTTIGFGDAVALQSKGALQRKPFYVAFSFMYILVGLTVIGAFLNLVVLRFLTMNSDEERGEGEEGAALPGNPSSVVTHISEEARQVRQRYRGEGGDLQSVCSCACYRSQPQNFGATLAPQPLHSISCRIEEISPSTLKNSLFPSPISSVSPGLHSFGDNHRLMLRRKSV

TASK-3/2loop2/Y99A/Y205A = TASK-3/2loop2/Y99A/Y205A (Cavia porcellus, UniProt Q9JL58, Y205A, form not given); details: HEK-293 cells; similar to TASK-3 WT
Chain of TASK-3/2loop2/Y99A/Y205A (Q9JL58 with tags, fused parts or gaps Y205A, form open): as above

Kv2.1 channel = Kv2.1 channel (Rattus norvegicus, UniProt P15387); assay: cell-based; details: HEK293, read-out: inhibition of Kv2.1 currents
Chain of Kv2.1 channel (P15387 whole entry): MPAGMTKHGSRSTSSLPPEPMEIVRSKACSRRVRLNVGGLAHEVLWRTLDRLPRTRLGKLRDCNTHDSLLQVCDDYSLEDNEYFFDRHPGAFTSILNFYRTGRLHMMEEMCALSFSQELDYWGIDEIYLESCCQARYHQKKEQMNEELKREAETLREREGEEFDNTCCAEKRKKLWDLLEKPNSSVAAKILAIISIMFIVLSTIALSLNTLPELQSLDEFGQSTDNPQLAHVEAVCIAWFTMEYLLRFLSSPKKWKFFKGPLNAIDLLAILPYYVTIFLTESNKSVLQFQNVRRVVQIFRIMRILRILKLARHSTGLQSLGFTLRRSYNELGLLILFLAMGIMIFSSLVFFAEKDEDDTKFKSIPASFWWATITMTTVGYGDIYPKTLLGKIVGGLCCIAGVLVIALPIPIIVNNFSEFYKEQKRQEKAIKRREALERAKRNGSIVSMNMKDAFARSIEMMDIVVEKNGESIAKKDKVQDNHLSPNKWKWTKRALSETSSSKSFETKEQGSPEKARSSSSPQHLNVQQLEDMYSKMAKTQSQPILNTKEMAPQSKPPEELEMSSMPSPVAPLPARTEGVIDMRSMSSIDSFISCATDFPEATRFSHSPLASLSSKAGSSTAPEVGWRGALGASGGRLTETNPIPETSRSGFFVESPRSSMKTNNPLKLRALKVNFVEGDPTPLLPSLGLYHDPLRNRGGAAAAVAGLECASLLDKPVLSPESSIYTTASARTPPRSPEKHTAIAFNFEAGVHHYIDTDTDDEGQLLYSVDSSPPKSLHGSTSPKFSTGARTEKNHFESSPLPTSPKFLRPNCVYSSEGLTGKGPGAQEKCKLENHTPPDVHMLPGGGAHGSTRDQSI

Chain of TASK-3/2loop2/Y99A (Q9JL58 with tags, fused parts or gaps): as the sequence (Q9JL58 with tags, fused parts or gaps Y205A, form open) above, with A127Y counted along it
Chain of TASK-3/2loop2 (cap-less TASK-3 channel) (Q9JL58 with tags, fused parts or gaps): as the sequence (Q9JL58 with tags, fused parts or gaps Y205A, form open) above, with A127Y counted along it
T1 sequence (Q9JL58 whole entry): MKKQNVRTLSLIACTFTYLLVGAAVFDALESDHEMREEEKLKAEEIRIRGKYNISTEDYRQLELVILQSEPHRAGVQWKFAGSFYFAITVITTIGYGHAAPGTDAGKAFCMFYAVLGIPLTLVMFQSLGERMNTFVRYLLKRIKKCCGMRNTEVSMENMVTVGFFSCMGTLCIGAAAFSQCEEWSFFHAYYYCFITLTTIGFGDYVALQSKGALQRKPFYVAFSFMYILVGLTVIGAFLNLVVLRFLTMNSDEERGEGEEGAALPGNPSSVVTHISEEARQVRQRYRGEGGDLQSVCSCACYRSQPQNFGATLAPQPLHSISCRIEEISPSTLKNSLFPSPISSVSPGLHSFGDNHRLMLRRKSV

CC[N+](CC)(CC)CC [TEA, tetraethylammonium]
inhibition at saturating TEA concentrations (TASK-3 WT channel [1]): 30% | maximal inhibition (TASK-3/2loop2/Y99A): 46% | IC50 (TASK-3/2loop2/Y99A; n = 4): 17.3 ± 1.8 mM | maximum inhibition [2]: 90% | IC50 ([2]; n = 4): 11.8 ± 0.4 mM | IC50 (TASK-3 WT channel [3]): 12.5 ± 3.4 mM | maximal inhibition (TASK-3/2loop2/Y205A): 59% | IC50 (TASK-3/2loop2/Y205A; n = 3): 63.9 ± 5.4 mM | sensitivity to TEA blockade (TASK-3/2loop2/Y99A/Y205A): essentially insensitive | inhibition at 100000 µM (Kv2.1 channel): ~85%
